Measured values as given in patent publication US6605637B1, “Lipoic acid derivatives, their preparation, and pharmaceutical compositions containing them” (Societe de Conseils de Recherches et d'Applications …, priority 1999, dated 2003).
Structures can show the parent of a compound that is named as a salt.

tested on: HT-22 cells; assay: Protection of HT-22 cells from oxidation stress induced by glutamate (MTT viability); type: cell-based; conditions: HT-22 mouse hippocampal line; glutamate 5 mM; viability after 24 h by MTT
Description: Study of the Effects on the Oxidation Stress Induced by Glutamate on Cells in Culture (HT-22).
The inhibitory activity of the products of the invention is determined by measuring their ability to protect the cells of a mouse hippocampal line (HT-22) of an oxidation stress caused by glutamate. The biosynthesis of glutathione, an essential element of cell detoxification of free radicals, requires the active transport of cystine to the interior of the cell. The glutamate by opposing the penetration of cystine causes a reduction in the level of glutathione which leads to the death of the cell due to oxidation stress (Davis, J. B. and Maher, P., Brain Res., (1994) 652: 169-173; Murphy, T. H. et al., Neuron, (1989) 2: 1547-1558). The cells are cultured at 37° C. in a DMEM medium with 10% of foetal calf serum added to it. The tests are carried out in 96-well plates containing 5000 cells per well. The glutamate (5 mM) is added to the medium containing or not containing the products to be tested. The cell viability is tested after 24 h by the MTT method (Hansen, M. B. et al., J Immunol. Methods (1989), 119, 203-210). The ability of the compounds to protect the cells from the toxic action of the glutamate is estimated in EC50, calculated relative to the viability of cells which have not been subjected to the action of glutamate considered as 100% viability.

SMILES | EC50
N=C(Nc1ccc(NC(=O)CCCCC2CCSS2)cc1)c1cccs1 (stereo not shown) [Example 1, N-{4-[[(2-Thienyl)(imino)methyl]amino]phenyl}-1,2-dithiolane-3-pentanamide Hydrochloride] | < 30 µM
N=C(Nc1ccc(CCNC(=O)CCCCC2CCSS2)cc1)c1cccs1 (stereo not shown) [Example 2, N-{2-{4[[(2-Thienyl)(imino)methyl]amino]phenyl}ethyl}-1,2-dithiolane-3-pentanamide] | < 30 µM
N=C(Nc1ccc(CCNC(=O)CC2CCSS2)cc1)c1cccs1 (stereo not shown) [Example 3, N-{2-{4[[(2-Thienyl)(imino)methyl]amino]phenyl}ethyl}-1,2-dithiolane-3-acetamide Hydrochloride] | < 30 µM
Cc1cc(N)nc(CCCCNC(=O)CC2CCSS2)c1 (stereo not shown) [Example 5, N-[4-(6-Amino-4-methyl-2-pyridinyl)butyl]-1,2-dithiolane-3-acetamide Fumarate] | < 30 µM
